Like-named read-outs stand apart in the source and are kept apart here.
Assays:
[1] = target: CDK4/Cyclin D1 (Homo sapiens (Human), UniProt P11802); test: CDK4/CyclinD1 enzymatic activity assay (TR-FRET); type: biochemical; conditions: CDK4/CyclinD1 1 nM, ATP 2 mM, read-out: CDK4_D1 IC50
Protocol: CDK4/CyclinD1 Enzymatic Activity Assay
(§1) The inhibitory activity of compounds was evaluated in vitro using TR-FRET assay with white 384-well low volume microplate (Greiner Bio-One). CDK4/Cyclin D1 catalyzed phosphorylation of peptide in the presence and absence of compounds was measured. IC50 determination. Recombinant protein complex CDK4/Cyclin D1, expressed from insect cell, was purchased from ProQinase. Testing compounds were dissolved in DMSO at 0.1 mM and tested in 9-dose IC50 mode. The reaction mixture was prepared by mixing CDK4/CyclinD1 (1 nM final), ULight-4E-BP1 (100 nM final, Perkinelmer, TRF0128-D), and ATP (2 mM final) in assay buffer (20 mM of HEPES pH 7.4, 1 mM of EGTA, 0.05% BSA, 0.005% Tween 20, and 1 mM TCEP). The compound of interest in DMSO was added to each well in 3-fold serial dilution by dispenser (TECAN D300E). After 20 minutes preincubation at room temperature, MgCl2 (10 mM final) was added to initiate the reaction. Following a 60 minutes incubation at 37° C., the reaction was stopped by addition of 2 μL of quenching buffer consisting of Lance detection buffer (Perkinelmer CR97-100C), 2 nM LANCE Ultra Europium-anti-P-4E-BP1 (Perkinelmer, TRF0216-D), 10 mM EDTA, and incubate at room temperature for additional 60 minutes in dark. The reaction signal was measured by Envision multimode plate reader (PerkinElmer, 2102-0010). IC50 values were determined by fitting the data to the standard 4 parameters with Hill Slope using GraphPad Prism software.

[2] = target: CDK6/Cyclin D1 (Homo sapiens (Human), UniProt Q00534); test: CDK6/CyclinD1 enzymatic activity assay (TR-FRET); type: biochemical; conditions: CDK6/Cyclin D1 1 nM, ATP 250 μM, read-out: CDK6_D1 IC50
Sequence of CDK6/Cyclin D1 (Q00534 whole entry): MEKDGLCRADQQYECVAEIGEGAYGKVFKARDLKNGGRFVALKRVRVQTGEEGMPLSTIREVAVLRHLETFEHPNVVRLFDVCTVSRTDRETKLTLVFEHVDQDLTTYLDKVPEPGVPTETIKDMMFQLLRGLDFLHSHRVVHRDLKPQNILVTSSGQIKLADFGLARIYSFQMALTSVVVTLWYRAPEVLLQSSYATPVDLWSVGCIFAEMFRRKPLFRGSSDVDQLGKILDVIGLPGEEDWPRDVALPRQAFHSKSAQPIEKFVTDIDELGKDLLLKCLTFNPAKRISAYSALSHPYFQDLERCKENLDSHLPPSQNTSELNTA
Sequence of CDK6/Cyclin D1 (P24385 whole entry partner): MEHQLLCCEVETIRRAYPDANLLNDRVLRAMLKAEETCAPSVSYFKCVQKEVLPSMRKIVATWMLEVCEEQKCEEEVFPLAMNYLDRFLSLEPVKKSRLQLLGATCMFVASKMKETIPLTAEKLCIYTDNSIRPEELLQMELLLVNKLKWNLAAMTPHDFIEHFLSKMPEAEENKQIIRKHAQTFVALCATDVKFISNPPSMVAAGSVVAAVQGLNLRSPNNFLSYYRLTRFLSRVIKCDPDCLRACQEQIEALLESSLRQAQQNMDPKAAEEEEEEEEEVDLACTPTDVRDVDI
Protocol: CDK6/CyclinD1 Enzymatic Activity Assay
as §1, with “CDK6/Cyclin” for “CDK4/Cyclin”, “measured and used in” for “measured.”, “CDK6/Cyclin D1” for “CDK4/CyclinD1”, “(250 μM” for “(2 mM”, “temperature, 0.1 μL” for “temperature,”

[3] = tested on: MCF7 adenocarcinoma cell line; test: Cell proliferation studies in MCF7 cells (ATP-Lite); type: cell-based; conditions: 10 days incubation, cell viability by ATP-Lite luminescence, read-out: PROLIFERATION_CTG_MCF7 IC50
Protocol: Cell Proliferation Studies in MCF7 Cells
Cell proliferation studies were conducted in MCF7 adenocarcinoma cell line. Cells were maintained in DMEM (Corning, Catalog #: 10-013-CV) supplemented with 10% v/v FBS (Gibco, Catalog #: 26140-079), 1% v/v Penicillin Streptomycin (Gibco, Catalog #15140-122) Cells were seeded in 384-well plates at a density of 100 or 200 cells/well. Compounds dissolved in DMSO were plated in quadruplicate using a digital dispenser (D300E, Tecan) and tested on a 9-point 3-fold serial dilution. Cells were incubated for 10 days in a 37° C. active humidified incubator at 5% CO2. A media exchange and second compound addition were performed on day 5. Cell viability was measured using the ATP-Lite 1-Step Luminescence reagent (Perkin Elmer, Catalog #: 6016731) as per manufacturer's instructions. Luminescence signal was measured with a multimode plate reader (Envision 2105, Perkin Elmer). Raw data files were imported to Dotmatics Screening Ultra for IC50 analysis. Luminescence values were normalized to both background and DMSO controls to obtain a percentage of viable cells relative to DMSO vehicle control.

Sequence of CDK4/Cyclin D1 (P11802 whole entry): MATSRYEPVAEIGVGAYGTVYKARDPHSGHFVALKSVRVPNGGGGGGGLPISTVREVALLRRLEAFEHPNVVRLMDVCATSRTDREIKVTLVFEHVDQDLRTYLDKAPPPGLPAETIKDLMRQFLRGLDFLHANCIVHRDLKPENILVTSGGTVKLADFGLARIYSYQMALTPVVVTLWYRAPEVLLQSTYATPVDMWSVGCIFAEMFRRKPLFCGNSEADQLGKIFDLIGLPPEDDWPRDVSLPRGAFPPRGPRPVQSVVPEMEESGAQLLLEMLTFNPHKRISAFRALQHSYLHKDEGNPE
Sequence of CDK4/Cyclin D1 (P24385 whole entry partner): as the sequence (P24385 whole entry partner) above

Row | Compound | IC50 [1] | IC50 [2] | IC50 ([3]; Homo sapiens, 240 h) | IC50 [3]
1 | Cc1c(-c2nc(Nc3ccc(N4CCC5(CCN(C)C5)C4)cn3)ncc2F)sc2c1C(=O)N(C)CC21CC1 (stereo not drawn) [Example 37, 2′-(5-Fluoro-2-((5-(7-methyl-2,7-diazaspiro[4.4]nonan-2-yl)pyridin-2-yl)amino)pyrimidin-4-yl)-3′,5′-dimethyl-5′,6′-dihydro-4′H-spiro[cyclopropane-1,7′-thieno[3,2-c]pyridin]-4′-one] | ≤ 20 nM | ≤ 20 nM | 20 to 200 nM | 
2 | CN1CCC(c2ccc(Nc3nc(-c4cc5c(s4)C4(CC4)CN(C)C5=O)ncc3C(F)(F)F)nc2)CC1 [Example 40, 5-Methyl-2-[4-[[5-(1-methylpiperidin-4-yl)pyridin-2-yl]amino]-5-(trifluoromethyl)pyrimidin-2-yl]spiro[6H-thieno[3,2-c]pyridine-7,1′-cyclopropane]-4-one] | ≤ 20 nM | ≤ 20 nM | ≤ 20 nM | 
3 | Cc1cnc(Nc2ccc(N3CCC4(CC3)CN(C)C4)cn2)nc1-c1cc2c(s1)C1(CC1)CN(C)C2=O [Example 43, 5-methyl-2-[5-Methyl-2-[[5-(2-methyl-2,7-diazaspiro[3.5]nonan-7-yl)pyridin-2-yl]amino]pyrimidin-4-yl]spiro[6H-thieno[3,2-c]pyridine-7,1′-cyclopropane]-4-one] | ≤ 20 nM | ≤ 20 nM | 20 to 200 nM | 
4 | CCN1CC2(C1)CN(c1ccc(Nc3ncc(Cl)c(-c4cc5c(s4)C4(CC4)CN(C)C5=O)n3)nc1)C2 [Example 45, 2-[5-Chloro-2-[[5-(6-ethyl-2,6-diazaspiro[3.3]heptan-2-yl)pyridin-2-yl]amino]pyrimidin-4-yl]-5-methylspiro[6H-thieno[3,2-c]pyridine-7,1′-cyclopropane]-4-one] | ≤ 20 nM | ≤ 20 nM | ≤ 20 nM | 
5 | CN1CC2(CCC2)c2sc(-c3nc(Nc4ccc(N5CC6CC(C5)N6C)cn4)ncc3F)cc2C1=O [Example 46, 2′-(5-Fluoro-2-((5-(6-methyl-3,6-diazabicyclo[3.1.1]heptan-3-yl)pyridin-2-yl)amino)pyrimidin-4-yl)-5′-methyl-5′,6′-dihydro-4′H-spiro[cyclobutane-1,7′-thieno[3,2-c]pyridin]-4′-one] | ≤ 20 nM | 20 to 200 nM | 20 to 200 nM | 
6 | CCN1CC2(C1)CN(c1ccc(Nc3ncc(F)c(-c4sc5c(c4C)C(=O)N(C)CC54CCC4)n3)nc1)C2 [Example 52, 2′-(2-((5-(6-Ethyl-2,6-diazaspiro[3.3]heptan-2-yl)pyridin-2-yl)amino)-5-fluoropyrimidin-4-yl)-3′,5′-dimethyl-5′,6′-dihydro-4′H-spiro[cyclobutane-1,7′-thieno[3,2-c]pyridin]-4′-one] | ≤ 20 nM | ≤ 20 nM | 20 to 200 nM | 
7 | CN1CC2(CCC2)c2sc(-c3nc(Nc4ccc(N5CCN6CCC5CC6)cn4)ncc3F)cc2C1=O [Example 53, 2′-(2-((5-(1,4-Diazabicyclo[3.2.2]nonan-4-yl)pyridin-2-yl)amino)-5-fluoropyrimidin-4-yl)-5′-methyl-5′,6′-dihydro-4′H-spiro[cyclobutane-1,7′-thieno[3,2-c]pyridin]-4′-one] | ≤ 20 nM | 20 to 200 nM | 20 to 200 nM | 
8 | Cc1c(-c2nc(Nc3ccc(N4CC5(CCN(C)C5)C4)cn3)ncc2F)sc2c1C(=O)N(C)CC21CCC1 [Example 54, 2′-(5-Fluoro-2-((5-(6-methyl-2,6-diazaspiro[3.4]octan-2-yl)pyridin-2-yl)amino)pyrimidin-4-yl)-3′,5′-dimethyl-5′,6′-dihydro-4′H-spiro[cyclobutane-1,7′-thieno[3,2-c]pyridin]-4′-one] | ≤ 20 nM | ≤ 20 nM | 20 to 200 nM | 
9 | Cc1c(-c2nc(Nc3ccc(N4C[C@H]5CN(C)C[C@H]5C4)cn3)ncc2F)sc2c1C(=O)N(C)CC21CCC1 [Example 57, 2′-(5-Fluoro-2-((5-((3aR,6aS)-5-methylhexahydropyrrolo[3,4-c]pyrrol-2(1H)-yl)pyridin-2-yl)amino)pyrimidin-4-yl)-3′,5′-dimethyl-5′6′-dihydro-4′H-spiro[cyclobutane-1,7′-thieno[3,2-c]pyridin]-4′-one] | ≤ 20 nM | ≤ 20 nM |  | 20 to 200 nM
10 | CN1CCC(c2ccc(Nc3nc(-c4cc5c(s4)C4(CCC4)CN(C)C5=O)ncc3C(F)(F)F)nc2)CC1 [Example 58] | ≤ 20 nM | ≤ 20 nM |  | ≤ 20 nM
11 | Cc1c(-c2nc(Nc3ccc(C4CCN(C)CC4)cn3)ncc2Cl)sc2c1C(=O)N(C)CC21CCC1 [Example 60, 2-[5-Chloro-2-[[5-(1-methyl-piperidin-4-yl)pyridin-2-yl]amino]pyrimidin-4-yl]-3,5-dimethylspiro[6H-thieno[3,2-c]pyridine-7,1′-cyclobutane]-4-one] | ≤ 20 nM | ≤ 20 nM | 20 to 200 nM | 
12 | CN1CC2(C1)CN(c1ccc(Nc3ncc(F)c(-c4cc5c(s4)C4(CCCC4)CN(C)C5=O)n3)nc1)C2 [Example 61, 2′-(5-Fluoro-2-((5-(6-(methyl-d3)-2,6-diazaspiro[3.3]heptan-2-yl)pyridin-2-yl)amino)pyrimidin-4-yl)-5,-(methyl-d3)-5′,6′-dihydro-4′H-spiro[cyclopentane-1,7′-thieno[3,2-c]pyridin]-4′-one] | ≤ 20 nM | ≤ 20 nM |  | ≤ 20 nM
13 | CN1CC2(CCCC2)c2sc(-c3nc(Nc4ccc(N5CCOCC5)cn4)ncc3F)cc2C1=O [Example 62, 2′-(5-Fluoro-2-((5-morpholino-pyridin-2-yl)amino)pyrimidin-4-yl)-5′-methyl-5′,6′-dihydro-4′H-spiro[cyclopentane-1,7′-thieno[3,2-c]pyridin]-4′-one] | ≤ 20 nM | 20 to 200 nM | 20 to 200 nM | 
14 | [2H]C([2H])([2H])N1C(=O)c2c(sc(-c3nc(Nc4ccc(C5CCN(C)CC5)cn4)ncc3F)c2C)C12CC2 [Example 70, 2′-[5-Fluoro-2-[[5-(1-methylpiperidin-4-yl)pyridin-2-yl]amino]pyrimidin-4-yl]-3′-methyl-5′-(trideuteriomethyl)spiro[cyclopropane-1,6′-thieno[2,3-c]pyrrole]-4′-one] | ≤ 20 nM | ≤ 20 nM | 20 to 200 nM | 
15 | Cc1c(-c2nc(Nc3ccc(C4CCN(C)CC4)cn3)ncc2F)sc2c1C(=O)NC21CC1 [Example 73, 2-[5-Fluoro-2-[[5-(1-methylpiperidin-4-yl)pyridin-2-yl]amino]pyrimidin-4-yl]-3-methylspiro[5H-thieno[2,3-c]pyrrole-6,1′-cyclopropane]-4-one] | ≤ 20 nM | ≤ 20 nM | ≤ 20 nM | 

Reference: US20250163074A1, “CDK Inhibitors And Their Use As Pharmaceuticals” (Prelude Therapeutics Incorporated, priority 2020, published 2025)
